The values below come from patent US8592454B2, “Nitrogen-containing heterocyclic compound and use of same” (Takeda Pharmaceutical Company Limited, priority 2008, dated 2013).

Where a name gives a salt, the structure may show the parent alone. Read-outs that look alike come from different tables or passages of the source. A value given as a limit tells only on which side of the number the result lay.

By IC50 is commonly meant the point on the concentration scale where inhibition reaches its midpoint.

The target in one assay is Human NK1 Receptor (Homo sapiens (Human), UniProt P25103). The assay can be described thus: Human NK1 receptor binding assay: radioligand (125I-Bolton-Hunter-SP) binding inhibitory activity using receptor from human lymphoblast cells (IM-9). Conditions: hNK1 receptor binding inhibition.
Assay [1] has as its target Human NK2 (hNK2) receptor (Homo sapiens (Human), UniProt P21452). Briefly: Human NK2 receptor binding assay: radioligand ([125I]-NK-A) binding inhibitory activity using membrane fraction of CHO cell expressing human NK2 (hNK2) receptor. Conditions: hNK2 receptor binding inhibition. The source says:
Human NK2 Receptor Binding Assay

In assay [2] the target is Human NK3 (hNK3) receptor (Homo sapiens (Human), UniProt P29371).
Method: Human NK3 Receptor Binding Assay
CHO cells expressing hNK3 receptor were cultured in a MEMα medium (Nikken Seibutsu Igaku Kenkyusho, K.K.) containing 100 U/mL penicillin, 100 μg/mL streptomycin and 10% inactivated dialyzed serum. The medium was removed, the adhered cells were washed with PBS, and PBS containing 5 mM EDTA was added to detach the cells from the flask. The cells were collected by centrifugation, suspended in suspension buffer A (50 mM Tris-HCl (pH 7.4) containing 120 mM NaCl, 5 mM KCl, 2 μg/mL chymostatin, 40 μg/mL bacitracin, 40 μg/ml APMSF, 1 mM EDTA), disrupted by a Polytron homogenizer (Kinematika), and centrifuged at 800×g for 10 min. The supernatant was recovered and ultracentrifuged at 100,000×g for 25 min. The precipitation fraction was suspended in suspension buffer B (50 mM Tris-HCl (pH 7.4), 0.02% bovine serum albumin, 2 μg/ml chymostatin, 40 μg/ml bacitracin, 40 μg/mL APMSF, 3 mM MnCl2), and cryopreserved (−80° C.) as a receptor reference standard.
Measurement buffer (50 mM Tris-HCl (pH 7.4), 0.02% bovine serum albumin, 2 μg/ml chymostatin, 40 μg/mL bacitracin, 40 μg/mL APMSF, 3 mM MnCl2) (50 μL) was added to a 96-well microassay plate. The membrane reference standard (300 μg/mL) suspended in a measurement buffer was added by 50 μL. […] Furthermore, 400 μM [^125I]-NK-B (Neurokinin-B (N-Me-Phe^7), [^125I]His^3-) (PerkinElmer) solution was added to each well by 50 μL.
After reaction at 25° C. for 30 min, the reaction was quenched using a cell harvester (PerkinElmer) by rapid filtration on a GF/C filter plate, and the cells were washed 5 times with 250 μL of a 50 mM Tris-HCl buffer (pH 7.4) containing 0.02% bovine serum albumin. The GF/C filter plate was dried, MicroScinti-0 (Perkin Elmer) was added by 20 μL, and the radioactivity was measured on a TopCount (PerkinElmer). The GF/C filter plate used had been immersed in 0.3% polyethyleneimine for one day.
The specific binding level is shown by a value obtained by subtracting non-specific binding level from the total binding level. The binding inhibitory activity of the test compound is shown by a ratio of the value obtained by subtracting the measurement value with addition of a test compound from the total binding level, to the value of the specific binding level.
The mark [3] stands for this setting: read-out: IC50 value hNK3, hNK3 receptor binding inhibition.

Sequence of Human NK3 (hNK3) receptor (P29371 whole entry): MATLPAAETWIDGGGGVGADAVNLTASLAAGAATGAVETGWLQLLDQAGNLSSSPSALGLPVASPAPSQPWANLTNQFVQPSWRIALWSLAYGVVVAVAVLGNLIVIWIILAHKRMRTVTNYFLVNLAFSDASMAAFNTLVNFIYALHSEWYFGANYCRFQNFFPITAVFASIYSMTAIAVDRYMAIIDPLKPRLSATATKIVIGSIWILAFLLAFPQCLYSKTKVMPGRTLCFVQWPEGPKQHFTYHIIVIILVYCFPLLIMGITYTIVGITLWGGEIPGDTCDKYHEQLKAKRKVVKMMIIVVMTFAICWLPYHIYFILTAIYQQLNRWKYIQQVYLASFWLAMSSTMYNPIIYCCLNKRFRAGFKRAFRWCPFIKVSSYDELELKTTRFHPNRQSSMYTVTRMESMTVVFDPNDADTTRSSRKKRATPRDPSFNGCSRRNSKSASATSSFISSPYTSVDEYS
Sequence of Human NK2 (hNK2) receptor (P21452 whole entry): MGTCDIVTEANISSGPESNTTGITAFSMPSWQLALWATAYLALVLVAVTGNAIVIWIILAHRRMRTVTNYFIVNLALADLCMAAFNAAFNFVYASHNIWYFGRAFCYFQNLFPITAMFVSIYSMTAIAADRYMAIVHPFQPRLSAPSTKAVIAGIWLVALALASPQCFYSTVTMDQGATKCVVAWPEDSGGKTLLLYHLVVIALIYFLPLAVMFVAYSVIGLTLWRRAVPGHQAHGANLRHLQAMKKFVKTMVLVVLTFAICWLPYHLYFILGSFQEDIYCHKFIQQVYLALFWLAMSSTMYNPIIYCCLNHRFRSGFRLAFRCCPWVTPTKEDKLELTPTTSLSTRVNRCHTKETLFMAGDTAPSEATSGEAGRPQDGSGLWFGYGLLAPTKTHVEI
Sequence of Human NK1 Receptor (P25103 whole entry): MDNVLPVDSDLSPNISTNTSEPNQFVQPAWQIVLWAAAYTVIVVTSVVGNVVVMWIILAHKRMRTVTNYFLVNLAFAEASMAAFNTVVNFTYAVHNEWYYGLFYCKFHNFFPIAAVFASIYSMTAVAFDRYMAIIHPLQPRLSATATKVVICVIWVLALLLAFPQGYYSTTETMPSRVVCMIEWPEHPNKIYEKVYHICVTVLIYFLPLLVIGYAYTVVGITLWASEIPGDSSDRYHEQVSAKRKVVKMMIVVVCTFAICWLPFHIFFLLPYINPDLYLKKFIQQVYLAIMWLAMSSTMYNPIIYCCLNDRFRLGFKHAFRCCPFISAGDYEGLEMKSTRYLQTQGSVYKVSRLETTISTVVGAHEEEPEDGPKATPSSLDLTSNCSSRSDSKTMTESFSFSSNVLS

With `CN(C(=O)N(C)[C@@H]1CCN(C2CCS(=O)(=O)CC2)C[C@H]1c1ccc(F)cc1)c1cc(C(F)(F)F)cc(C(F)(F)F)c1` [Example 104, 1-[3,5-bis(trifluoromethyl)phenyl]-3-[(3R,4R)-1-(1,1-dioxidetetrahydro-2H-thiopyran-4-yl)-3-(4-fluorophenyl)piperidin-4-yl]-1,3-dimethylurea monohydrochloride], the IC50 is 0.073 nM on Human NK1 Receptor and 100 nM in assay [1].
Take `CC(=O)N1CCC(C(=O)N2C[C@@H](N(C)C(=O)N(C)c3cc(C(F)(F)F)cc(C(F)(F)F)c3)[C@H](c3ccc(F)cn3)C2)CC1` [Example 192, 1-[(3S,4R)-1-[(1-acetylpiperidin-4-yl)carbonyl]-4-(5-fluoropyridin-2-yl)pyrrolidin-3-yl]-3-[3,5-bis(trifluoromethyl)phenyl]-1,3-dimethylurea]: the results for the IC50 (on Human NK1 Receptor; in assay [2]; in assay [1]) were 0.032 nM, 4400 nM and 120 nM, respectively.
Take `CC(=O)N1CCC(C(=O)N2C[C@@H](N(C)C(=O)N(C)c3cc(Cl)cc(Cl)c3)[C@H](c3ccc(F)cc3)C2)CC1` [Example 176, 1-[(3S,4R)-1-[(1-acetylpiperidin-4-yl)carbonyl]-4-(4-fluorophenyl)pyrrolidin-3-yl]-3-(3,5-dichlorophenyl)-1,3-dimethylurea]: the IC50 at Human NK1 Receptor came out at 0.029 nM; in assay [2] (setting [3]), 600 nM; in assay [1], 12 nM.
Consider `CN(C(=O)N(C)[C@@H]1CN(C(=O)N2CCN(S(C)(=O)=O)CC2)C[C@H]1c1ccc(F)cc1)c1cc(Cl)cc(Cl)c1` [Example 420, 1-(3,5-dichlorophenyl)-3-[(3S,4R)-4-(4-fluorophenyl)-1-{[4-(methylsulfonyl)piperazin-1-yl]carbonyl}pyrrolidin-3-yl]-1,3-dimethylurea], for which the IC50 on Human NK1 Receptor is 0.03 nM; in assay [2] it was 120 nM; in assay [1] it was 77 nM.
Turning to `COC(=O)N[C@H]1CC[C@H](C(=O)N2C[C@@H](N(C)C(=O)N(C)c3cc(C(F)(F)F)cc(C(F)(F)F)c3)[C@H](c3ccc(F)cc3)C2)CC1` [Example 233, methyl (trans-4-{[(3S,4R)-3-[{[3,5-bis(trifluoromethyl)phenyl](methyl)carbamoyl}(methyl)amino]-4-(4-fluorophenyl)pyrrolidin-1-yl]carbonyl}cyclohexyl)carbamate], the IC50 on Human NK1 Receptor was determined as 0.049 nM; in assay [2] (setting [3]), 1100 nM; in assay [1] it was 42 nM.
As for `CC(=O)N1CCC(C(=O)N2C[C@@H](N(C)C(=O)N(C)c3cc(C(F)(F)F)cc(C(F)(F)F)c3)[C@H](c3ccc(F)cc3)C2)CC1` [Example 71b], the 50% inhibitory concentration (IC50) at Human NK1 Receptor was 0.027 nM; in assay [1], 7.1 nM.
For the molecule `CC(=O)N1CCC(C(=O)N2CC[C@@H](N(C)C(=O)N(C)c3cc(C(F)(F)F)cc(C(F)(F)F)c3)[C@H](c3ccc(Cl)c(Cl)c3)C2)CC1` [Example 25, 1-[(3R,4R)-1-[(1-acetylpiperidin-4-yl)carbonyl]-3-(3,4-dichlorophenyl)piperidin-4-yl]-3-[3,5-bis(trifluoromethyl)phenyl]-1,3-dimethylurea], the results for the half-inhibitory concentration (IC50) (at Human NK1 Receptor; in assay [2] (setting [3]); in assay [1]) were 0.031 nM, 1400 nM and 7.1 nM, respectively.
`CC(=O)N1CCC(C(=O)N2CC[C@@H](N(C)C(=O)N(C)c3cc(C(F)(F)F)cc(C(F)(F)F)c3)[C@H](c3ccc(F)cc3)C2)CC1` (relative stereo) [Example 4, 1-[(3R*,4R*)-1-[(1-acetylpiperidin-4-yl)carbonyl]-3-(4-fluorophenyl)piperidin-4-yl]-3-[3,5-bis(trifluoromethyl)phenyl]-1,3-dimethylurea]: the IC50 was determined as 0.11 nM on Human NK1 Receptor and 4200 nM in assay [1].
For `CN(C(=O)N(C)[C@@H]1CN(C(=O)C2CCN(C(=O)C(C)(C)O)CC2)C[C@H]1c1ccc(F)cc1)c1cc(C(F)(F)F)cc(C(F)(F)F)c1` [Example 308, 1-[3,5-bis(trifluoromethyl)phenyl]-3-[(3S,4R)-4-(4-fluorophenyl)-1-{[1-(2-hydroxy-2-methylpropanoyl)piperidin-4-yl]carbonyl}pyrrolidin-3-yl]-1,3-dimethylurea] the same measures were 0.07 nM and 2.4 nM.
Regarding `CN(C(=O)N(C)[C@@H]1CN(C(=O)NC2CCOCC2)C[C@H]1c1ccc(F)cc1)c1cc(C(F)(F)F)cc(C(F)(F)F)c1` [Example 378, (3S,4R)-3-[{[3,5-bis(trifluoromethyl)phenyl](methyl)carbamoyl}(methyl)amino]-4-(4-fluorophenyl)-N-(tetrahydro-2H-pyran-4-yl)pyrrolidine-1-carboxamide], the IC50 was determined as 0.039 nM at Human NK1 Receptor, 650 nM in assay [2] (setting [3]) and 59 nM in assay [1].
Regarding `CC(=O)N1CCC(C(=O)N2CC[C@@H](N(C)C(=O)Nc3ccc(Cl)cc3)[C@H](c3ccc(Cl)c(Cl)c3)C2)CC1` [Example 61, 1-[(3R,4R)-1-[(1-acetylpiperidin-4-yl)carbonyl]-3-(3,4-dichlorophenyl)piperidin-4-yl]-3-(4-chlorophenyl)-1-methylurea], the IC50 is 290 nM at Human NK1 Receptor, 99 nM in assay [2] (setting [3]) and more than 100 nM in assay [1].
`CC(=O)N1CCC(C(=O)N2C[C@@H](N(C)C(=O)N(C)c3cc(C(F)(F)F)cc(C(F)(F)F)c3)[C@H](c3ccc(Cl)c(Cl)c3)C2)CC1` (racemic) [Example 66, 1-[(3S*, 4R*)-1-[(1-acetylpiperidin-4-yl)carbonyl]-4-(3,4-dichlorophenyl)pyrrolidin-3-yl]-3-[3,5-bis(trifluoromethyl)phenyl]-1,3-dimethylurea]: the values for the IC50 (at Human NK1 Receptor; in assay [1]) were 0.075 nM and 2 nM, respectively.
